Results: ChEMBL document CHEMBL2375252, “Novel indoline-2,3-dione derivatives as inhibitors of aminopeptidase N (APN)” (Bioorg Med Chem, 2013)

Legend:
[1] = molecular target: Histone deacetylase 1/3/5/8 (Homo sapiens, UniProt Q13547+O15379+Q9UQL6+Q9BY41); experiment: Inhibition of HDAC1/3/5/8 in human HeLa cell extract using Boc-Lys-(acetyl)-AMC as substrate incubated for 5 mins prior to substrate addition measured after 30 mins by fluorometric analysis; type: protein assay
Aminopeptidase N [2] = molecular target: T1, Aminopeptidase N (Sus scrofa, UniProt P15145); experiment: Inhibition of pig kidney microsome aminopeptidase-N using L-leu-p-nitroanilide as substrate incubated for 5 mins prior to substrate addition measured after 30 mins by spectrophotometric analysis
T1 sequence (P15145 whole entry): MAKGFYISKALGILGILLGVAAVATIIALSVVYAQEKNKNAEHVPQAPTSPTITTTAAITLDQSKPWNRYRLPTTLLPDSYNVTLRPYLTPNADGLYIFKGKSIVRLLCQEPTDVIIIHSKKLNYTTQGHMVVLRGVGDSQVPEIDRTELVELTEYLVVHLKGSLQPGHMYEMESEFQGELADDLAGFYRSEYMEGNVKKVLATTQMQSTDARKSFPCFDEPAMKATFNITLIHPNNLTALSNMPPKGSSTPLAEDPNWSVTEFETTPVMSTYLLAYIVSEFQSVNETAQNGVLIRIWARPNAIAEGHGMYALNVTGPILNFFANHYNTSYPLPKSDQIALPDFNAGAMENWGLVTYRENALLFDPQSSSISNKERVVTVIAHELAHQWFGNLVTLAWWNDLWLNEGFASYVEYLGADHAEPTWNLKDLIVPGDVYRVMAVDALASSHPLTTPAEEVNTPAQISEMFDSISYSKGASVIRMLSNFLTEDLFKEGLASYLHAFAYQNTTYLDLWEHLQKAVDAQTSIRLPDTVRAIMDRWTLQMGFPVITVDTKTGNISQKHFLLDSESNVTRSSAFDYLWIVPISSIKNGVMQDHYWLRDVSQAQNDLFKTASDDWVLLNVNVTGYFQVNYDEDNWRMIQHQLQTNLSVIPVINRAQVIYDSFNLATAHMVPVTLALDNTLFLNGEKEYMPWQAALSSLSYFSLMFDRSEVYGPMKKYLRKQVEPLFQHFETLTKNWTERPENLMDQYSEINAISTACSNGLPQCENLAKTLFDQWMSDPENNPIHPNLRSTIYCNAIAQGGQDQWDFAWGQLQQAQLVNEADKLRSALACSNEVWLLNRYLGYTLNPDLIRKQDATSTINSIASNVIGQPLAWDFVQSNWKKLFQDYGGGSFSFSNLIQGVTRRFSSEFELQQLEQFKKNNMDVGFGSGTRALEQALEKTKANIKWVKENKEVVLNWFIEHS

Aminopeptidase N [3] = molecular target: Aminopeptidase N (Homo sapiens, UniProt P15144); experiment: Inhibition of aminopeptidase-N in human ES2 cells using L-leu-p-nitroanilide as substrate incubated for 5 mins prior to substrate addition measured after 30 mins by spectrophotometric analysis; type: cell-based
MDA-MB-231 = experiment: cells; conditions: Homo sapiens, MDA-MB-231, 48 h
Description: Cytotoxicity against human MDA-MB-231 cells after 48 hrs by MTT assay

[4] = Cytotoxicity against human ES2 cells after 48 hrs by MTT assay; conditions: ES-2, 48 h

Aminopeptidase N (Homo sapiens, UniProt P15144), sequence (P15144 whole entry): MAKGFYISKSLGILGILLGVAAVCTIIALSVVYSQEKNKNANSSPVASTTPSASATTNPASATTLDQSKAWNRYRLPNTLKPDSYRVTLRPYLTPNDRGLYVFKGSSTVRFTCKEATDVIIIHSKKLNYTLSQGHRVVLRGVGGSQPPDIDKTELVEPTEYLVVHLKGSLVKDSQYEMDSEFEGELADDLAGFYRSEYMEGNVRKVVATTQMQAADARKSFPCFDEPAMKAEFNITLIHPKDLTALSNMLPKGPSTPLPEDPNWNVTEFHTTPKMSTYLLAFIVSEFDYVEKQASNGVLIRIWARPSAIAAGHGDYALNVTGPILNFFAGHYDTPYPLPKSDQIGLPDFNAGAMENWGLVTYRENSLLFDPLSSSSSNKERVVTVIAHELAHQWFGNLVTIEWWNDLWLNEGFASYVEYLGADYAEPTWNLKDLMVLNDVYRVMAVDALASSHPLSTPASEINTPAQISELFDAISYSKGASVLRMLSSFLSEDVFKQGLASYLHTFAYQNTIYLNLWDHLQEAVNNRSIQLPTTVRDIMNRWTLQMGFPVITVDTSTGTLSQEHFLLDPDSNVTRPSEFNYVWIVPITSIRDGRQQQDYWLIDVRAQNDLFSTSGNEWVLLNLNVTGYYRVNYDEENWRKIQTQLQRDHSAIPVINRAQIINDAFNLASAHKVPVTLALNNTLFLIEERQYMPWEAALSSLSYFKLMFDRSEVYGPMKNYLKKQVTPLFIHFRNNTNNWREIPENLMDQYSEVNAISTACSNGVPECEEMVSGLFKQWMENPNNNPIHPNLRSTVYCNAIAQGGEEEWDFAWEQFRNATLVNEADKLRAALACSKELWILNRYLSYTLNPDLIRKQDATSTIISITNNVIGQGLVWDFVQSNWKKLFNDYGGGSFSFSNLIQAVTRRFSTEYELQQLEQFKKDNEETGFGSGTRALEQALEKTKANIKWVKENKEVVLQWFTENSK

O=C(CN1C(=O)C2(OCCO2)c2cc(Br)ccc21)NO
IC50 [1]: > 100 µM

CC(C)C[C@H](NC(=O)CN1C(=O)C2(OCCO2)c2cc(Br)ccc21)C(=O)NO
IC50 (Aminopeptidase N [2]): 22.5 µM

CC[C@H](C)[C@H](NC(=O)CN1C(=O)C2(OCCO2)c2cc(Br)ccc21)C(=O)NO
IC50 (Aminopeptidase N [2]): 631 µM

O=C(CN1C(=O)C2(OCCO2)c2cc(Br)ccc21)NC(C(=O)NO)c1ccccc1 (stereo not drawn)
IC50 (Aminopeptidase N [2]): > 1000 µM

CC(C)[C@H](NC(=O)CN1C(=O)C2(OCCO2)c2cc(Br)ccc21)C(=O)NO
IC50 (Aminopeptidase N [2]): 226 µM

O=C(CN1C(=O)C2(OCCO2)c2cc(Cl)ccc21)NO
IC50 (Aminopeptidase N [2]): 0.31 µM
IC50 [1]: > 100 µM
IC50 (Aminopeptidase N [3]): 9.58 µM
IC50 (MDA-MB-231): 177 µM
IC50 [4]: 167 µM

O=C(CN1C(=O)C2(OCCO2)c2cc(F)ccc21)NO
IC50 (Aminopeptidase N [2]): 5.3 µM
IC50 [1]: > 100 µM
IC50 (Aminopeptidase N [3]): 16.2 µM
IC50 (MDA-MB-231): 180 µM
IC50 [4]: 142 µM

O=C(CN1C(=O)C2(OCCO2)c2ccccc21)NO
IC50 (Aminopeptidase N [2]): 209 µM

Cc1ccc2c(c1)C1(OCCO1)C(=O)N2CC(=O)NO
IC50 (Aminopeptidase N [2]): 2.63 µM

O=C(CN1C(=O)C2(OCCCO2)c2cc(Cl)ccc21)NO
IC50 (Aminopeptidase N [2]): 1.3 µM
IC50 [1]: > 100 µM
IC50 (Aminopeptidase N [3]): 10.9 µM
IC50 (MDA-MB-231): 259 µM
IC50 [4]: 233 µM

O=C(CN1C(=O)C2(OCCCO2)c2cc(F)ccc21)NO
IC50 (Aminopeptidase N [2]): 6.71 µM
IC50 [1]: > 100 µM
IC50 (Aminopeptidase N [3]): 97.5 µM
IC50 (MDA-MB-231): 576 µM
IC50 [4]: 457 µM

O=C(CN1C(=O)C2(OCCCO2)c2cc(Br)ccc21)NO
IC50 (Aminopeptidase N [2]): 3.4 µM
IC50 [1]: > 100 µM
IC50 (Aminopeptidase N [3]): 19.7 µM
IC50 (MDA-MB-231): 55.1 µM
IC50 [4]: 137 µM

O=C(CN1C(=O)C2(OCCCO2)c2ccccc21)NO
IC50 (Aminopeptidase N [2]): 266 µM

Cc1ccc2c(c1)C1(OCCCO1)C(=O)N2CC(=O)NO
IC50 (Aminopeptidase N [2]): 3.33 µM

O=C(CN1C(=O)C2(OCCCCO2)c2cc(Cl)ccc21)NO
IC50 (Aminopeptidase N [2]): 0.074 µM
IC50 [1]: > 100 µM
IC50 (Aminopeptidase N [3]): 3.12 µM
IC50 (MDA-MB-231): 91.5 µM
IC50 [4]: 212 µM

O=C(CN1C(=O)C2(OCCCCO2)c2cc(F)ccc21)NO
IC50 (Aminopeptidase N [2]): 4.06 µM
IC50 [1]: > 100 µM
IC50 (Aminopeptidase N [3]): 15.2 µM
IC50 (MDA-MB-231): 114 µM
IC50 [4]: 553 µM

O=C(CN1C(=O)C2(OCCCCO2)c2cc(Br)ccc21)NO
IC50 (Aminopeptidase N [2]): 0.086 µM
IC50 [1]: > 100 µM
IC50 (Aminopeptidase N [3]): 12.1 µM
IC50 (MDA-MB-231): 32.9 µM
IC50 [4]: 409 µM

O=C(CNC(=O)CN1C(=O)C2(OCCO2)c2cc(Br)ccc21)NO
IC50 (Aminopeptidase N [2]): 6.6 µM
IC50 [1]: 0.33 µM

O=C(CN1C(=O)C2(OCCO2)c2cc(Br)ccc21)N[C@@H](Cc1ccccc1)C(=O)NO
IC50 (Aminopeptidase N [2]): 26.4 µM

CC(C)C[C@H](NC(=O)[C@@H](O)[C@H](N)Cc1ccccc1)C(=O)O [UBENIMEX]
IC50 [4]: 632 µM
